Reference: patent US20140275511A1, “PURIFICATION OF […]” (priority 2013, published 2014)

Tests used:
[1] = test system: Valley Fever (coccidioidomycosis); conditions: mouse, in vivo; cited from earlier work

C[C@@H]([C@H](N)C(=O)N[C@H](C(=O)O)[C@H]1O[C@@H](n2ccc(=O)[nH]c2=O)[C@H](O)[C@@H]1O)[C@H](O)c1ccc(O)cn1 [Nikkomycin Z]
stability of broth at pH 4: reasonably stable for at least a week | effectiveness at treating infected animals [1]: quite effective at treating infected animals
